# According to US20180140612A1, “TOPICAL OPHTHALMIC FORMULATIONS FOR THE TREATMENT AND PREVENTION OF MIGRAINE HEADACHE” (Ora, Inc., priority 2013, published 2018):
# Structures can show the parent of a compound that is named as a salt.
# Key:
# [1] = cited from earlier work
# [2] = migraineurs versus control subjects; cited from earlier work
# [3] = instillation of ophthalmic drops in the eye of subjects with migraine; assay type: in vivo, human; details: two subjects with occasional migraine
# Experimental: Data from two subjects with occasional migraine has shown that one drop of ketotifen 0.025% in the eye was successful in providing relief within 2 hours post treatment
# Data from two subjects with occasional migraine has shown that one drop of ketotifen 0.05% in the eye was successful in providing relief within 2 hours post treatment
# [4] = first month of treatment; prescription-event data; cited from earlier work
# [5] = topical 0.5% ophthalmic solution, twice daily dosing for 8 days, cited from earlier work
smiles,measurement,setting,value
CC(C)NCC(O)COc1ccc(CCOCC2CC2)cc1 (centres unmarked) [betaxolol],migraine related complaints,"[1]; case control study, group of subjects receiving the topical beta-blocker",showed improvement in their migraine related complaints
NCCc1c[nH]cn1 [histamine],induction of migraine headache,[2],induced migraine headache more often in migraineurs than in control subjects
CN1CCC(=C2c3ccccc3CC(=O)c3sccc32)CC1 [ketotifen],time to relief post treatment,[3]; one drop of ketotifen 0.025% in the eye,≤ 2 h
same,time to relief post treatment,[3]; one drop of ketotifen 0.05% in the eye,≤ 2 h
O=C(O)COCCN1CCN([C@H](c2ccccc2)c2ccc(Cl)cc2)CC1 [levocetirizine],association of headache/migraines with treatment,[4],positively associated
CC(C)(C)NC[C@H](O)COc1nsnc1N1CCOCC1 [timolol maleate],further attacks of migraine,"[1]; case report, person with history of common migraine, topical timolol maleate 0.5% for bilateral ocular hypertension",did not experience any further attacks of migraine
same,time of peak plasma concentration following first dose,[5],≤ 4 h
same,peak plasma concentration,[5]; following first dose,0.5 ng/mL
